{"source": "patent US20260373164A1", "about": "“4(RS)-4-F4-NEUROPROSTANE DERIVATIVES (4-F4T-NEUROP) AND THEIR USE IN TREATING VENTILATOR INDUCED DIAPHRAGMATIC DYSFUNCTION AND OTHER DISEASES” (INSTITUT NATIONAL DE LA SANTÉ ET DE LA RECHERCHE MÉDICALE, priority 2022, published 2026)", "key": {"[1]": {"tested_on": "ventricular myocytes (type 2 ryanodine receptor)", "assay": "Anti-arrhythmic properties in isolated ventricular myocytes (calcium transients and cell contraction, IonOptix)", "format": "cell-based, murine", "settings": "10 nM isoproterenol; for anti-arrhythmic properties (ryanodine dependent arrhythmic cells): VB574 10 nM, 100 nM or 1 μM, compound IV 1 μM, 1 Hz stimulation", "description": "Compounds 20,21,22-trinor-4(RS)-4-F4t-NeuroP (compound of Formula III, VB574) and monohydroxylated derivative of 4-F4t-NeuroP (Compound IV) were evaluated for their anti-arrhythmic properties. Calcium transients and cell contraction was measured by the photometric system ionOptix®.\nThe photometric system IonOptix® can provide real-time, simultaneous acquisition of fluorescence photometry with sarcomere length measurements. For the study of isolated myocytes, the system includes a pacemaker that offers full control of the stimulation pulse duration, the frequency and the voltage. Thus, the photometric system IonOptix® puts in correlation the calcium transients and the shortening of the electrically stimulated myocytes (1 Hz, 20 V, FIG. 7). Calcium was studied by the use of a ratiometric fluorescent calcium probe (indo-1-AM, excitation wavelength 360±10 nm, emission wavelength at 405±10 nm and 485±10 nm).\nTo measure the intracellular calcium, the first step was to bring ventricular myocytes load into contact with an amount of indo-1-AM. To make it liposoluble, indo-1 was esterified on its carboxylic functions to give indo-1-AM. Once present in the cell, esterases allow the release of Indo-1 carboxylic functions enabling it to bind to the intracellular calcium. The incorporation time was predetermined to 30 minutes. This time was chosen following experiments using different times of incubation and 30 minutes was the time giving a good ratio/noise ratio and no obvious perturbation of cellular calcium homeostasis. The incubation time of the probe is critical because too low load generates a weak signal while excessive exposure will excessively increase the buffering capacity of the cytoplasm for calcium.\nOnce loaded and the cells arranged on the measuring system by means of a tank containing Tyrode salt solution (450 μL), the probe was excited by a xenon lamp at a wavelength of 360 nm. Through an optical wavelength filter, the apparatus collects the fluorescence emitted from the Indo-1 at two different wavelengths: 405±10 nm and 485±10 nm. The first wavelength represents the fluorescence of the probe bound to calcium and the second wavelength represents the fluorescence of the free probe. The ratio of these two wavelengths reflects the concentration of intracellular calcium. It is thus possible to observe calcium transients in ventricular myocytes systole but also to observe the diastolic calcium when the stimulation is stopped.\nTo measure the contraction, striation of cardiac cells due to the presence of sarcomeres was used. […] The recorded signal is similar to a sine function. […]\nThus, to evaluate the potential RyR stabilizing effect of the 4-F4T-neuroprostane derivatives (compounds III and IV), the compounds were applied, and the percentage of arrhythmic cells was measured."}, "RyR2": {"tested_on": "RyR2", "settings": "previously reported (ref. 21); cited from earlier work"}}, "note": "Entries after “also recorded” stand apart in the source; their conditions may differ."}
{"smiles": "CC/C=C\\C/C=C\\C[C@@H]1[C@H](/C=C/C(O)CCC(=O)O)[C@@H](O)C[C@H]1O", "note": "(mixture of isomers) [compound III, (E)-6-((1S,2R,3R,5S)-3,5-dihydroxy-2-((2Z,5Z)-octa-2,5-dien-1-yl)cyclopentyl)-4-hydroxyhex-5-enoic Acid]", "values": [{"measurement": "anti-arrhythmic properties (ryanodine dependent arrhythmic cells)", "setting": "[1]", "result": "show anti-arrhythmic properties indicative of an interaction with the RyR"}]}
{"smiles": "CC/C=C\\C/C=C\\C/C=C\\C/C=C\\C/C=C\\C/C=C\\CCC(=O)O", "note": "[DHA, docosahaenoic acid]", "values": [{"measurement": "cardiac anti-arrhythmic effect, RyR2 stabilization", "setting": "RyR2", "result": "could exert a cardiac anti-arrhythmic effect due to a stabilization of the cardiac isoform of ryanodine receptor, RyR2"}]}
{"smiles": "CC/C=C\\C/C=C\\C/C=C\\C[C@H]1CC[C@H](O)[C@H]1/C=C/C(O)CCC(=O)O", "note": "(some centres unmarked) [compound IV]", "values": [{"measurement": "anti-arrhythmic properties (ryanodine dependent arrhythmic cells)", "setting": "[1]", "result": "show anti-arrhythmic properties indicative of an interaction with the RyR"}]}
{"smiles": "CC(C)NCC(O)c1ccc(O)c(O)c1", "note": "(centres unmarked) [isoproterenol]", "values": [{"measurement": "amplitude of contractions", "setting": "[1]", "result": "increase in the amplitude of contractions"}, {"measurement": "extrasystole ventricular contraction (ESV)", "setting": "[1]", "result": "promotes the development of ESV; also recorded: promote the development of ExtraSystole Ventricular contraction (ESV)"}]}
